In general, IC50 refers to the concentration needed to halve the response being measured.

Molecules are shown by their SMILES.

In test [1] the target is Histone deacetylase 1 (Homo sapiens, UniProt Q13547). As to the kind of experiment: Inhibition of HDAC1 (unknown origin) preincubated for 10 mins followed by tripeptide substrate addition and measured after 60 mins by fluorescence microplate reader assay.
In test [2] the target is Histone deacetylase 2 (Homo sapiens, UniProt Q92769). The test is described as follows: Inhibition of human HDAC2 preincubated for 10 mins followed by tripeptide substrate addition and measured after 60 mins by fluorescence microplate reader assay.
Chain of Histone deacetylase 2 (Q92769 whole entry): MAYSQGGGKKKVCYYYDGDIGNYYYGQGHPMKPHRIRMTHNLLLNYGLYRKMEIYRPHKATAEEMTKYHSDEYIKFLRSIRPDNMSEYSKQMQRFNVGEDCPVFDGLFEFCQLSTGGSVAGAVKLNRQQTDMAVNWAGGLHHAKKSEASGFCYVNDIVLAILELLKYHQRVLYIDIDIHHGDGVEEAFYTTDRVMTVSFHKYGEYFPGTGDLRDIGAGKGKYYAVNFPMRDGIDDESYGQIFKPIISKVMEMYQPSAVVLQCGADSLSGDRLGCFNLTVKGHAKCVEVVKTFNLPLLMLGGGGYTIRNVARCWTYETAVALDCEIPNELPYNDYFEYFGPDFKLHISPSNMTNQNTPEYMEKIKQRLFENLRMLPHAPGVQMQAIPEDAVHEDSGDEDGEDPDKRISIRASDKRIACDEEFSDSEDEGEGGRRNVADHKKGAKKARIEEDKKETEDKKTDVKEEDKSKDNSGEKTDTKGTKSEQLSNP

Chain of Histone deacetylase 1 (Q13547 whole entry): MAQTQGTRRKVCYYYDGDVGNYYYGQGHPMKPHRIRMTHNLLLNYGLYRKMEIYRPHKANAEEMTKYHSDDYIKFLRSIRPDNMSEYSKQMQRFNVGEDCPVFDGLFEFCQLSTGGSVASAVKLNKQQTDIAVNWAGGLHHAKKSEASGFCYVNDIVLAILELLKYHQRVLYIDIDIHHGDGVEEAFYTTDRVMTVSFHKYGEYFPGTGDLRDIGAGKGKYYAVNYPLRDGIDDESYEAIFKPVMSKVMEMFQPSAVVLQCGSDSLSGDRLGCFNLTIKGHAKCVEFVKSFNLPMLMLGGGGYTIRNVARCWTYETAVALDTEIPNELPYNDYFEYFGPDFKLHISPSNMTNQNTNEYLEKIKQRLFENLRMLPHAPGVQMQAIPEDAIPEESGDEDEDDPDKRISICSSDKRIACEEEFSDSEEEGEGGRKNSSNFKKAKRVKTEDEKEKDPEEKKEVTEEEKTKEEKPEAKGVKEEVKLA

In the case of `CN1C(=O)Cc2cc(C(=O)Nc3cc(-c4cccs4)ccc3N)ccc21`, the IC50 in test [1] turned out to be 5 nM; in test [2], 10 nM.

Regarding `Nc1ccc(-c2cccs2)cc1NC(=O)c1ccc2c(c1)CC(=O)N2CCN1CCOCC1`, the IC50 in test [1] amounted to 1 nM; in test [2], 5 nM.

Regarding `Nc1ccc(-c2ccccc2)cc1NC(=O)c1ccc2c(c1)ncn2CCN1CCOCC1`, the values for the IC50 in test [1] and in test [2] were 1 nM and 10 nM, respectively. `CN(C)CCNc1ccc2cc(C(=O)Nc3cc(-c4cccs4)ccc3N)ncc2c1` displayed an IC50 in test [2] of 5 nM. Take `Nc1ccc(-c2cccs2)cc1NC(=O)c1ccc2c(c1)CC(=O)N2CCCN1CCOCC1`: the IC50 in test [1] came out at 1 nM; in test [2], 5 nM.

Take `CN(C)CCN(C)c1ccc2cc(C(=O)Nc3cc(-c4cccs4)ccc3N)cnc2c1`: the IC50 in test [2] came out at 15 nM.

The values are drawn from ChEMBL document CHEMBL4828773, “Novel HDAC1 and HDAC2 Inhibitors for Treating Diseases” (ACS Med Chem Lett, 2021).
